In assay [1] the target is T1, c-Kit (Homo sapiens, UniProt P10721).
T1 construct: whole cytoplasmic domain of c-Kit (aa 544-976); made in house; host or cells: Sf9 or High Five (baculovirus)
As to the kind of experiment: c-kit kinase inhibition. In kind it is biochemical. To be noted: Table 4.

Assay [2] concerns the target T2, human EphB4 (Homo sapiens, UniProt P54760).
T2 construct: expressed in transfected cells; host or cells: A375 human melanoma cells (ATCC CRL-1619)
T2 sequence (P54760 16-987): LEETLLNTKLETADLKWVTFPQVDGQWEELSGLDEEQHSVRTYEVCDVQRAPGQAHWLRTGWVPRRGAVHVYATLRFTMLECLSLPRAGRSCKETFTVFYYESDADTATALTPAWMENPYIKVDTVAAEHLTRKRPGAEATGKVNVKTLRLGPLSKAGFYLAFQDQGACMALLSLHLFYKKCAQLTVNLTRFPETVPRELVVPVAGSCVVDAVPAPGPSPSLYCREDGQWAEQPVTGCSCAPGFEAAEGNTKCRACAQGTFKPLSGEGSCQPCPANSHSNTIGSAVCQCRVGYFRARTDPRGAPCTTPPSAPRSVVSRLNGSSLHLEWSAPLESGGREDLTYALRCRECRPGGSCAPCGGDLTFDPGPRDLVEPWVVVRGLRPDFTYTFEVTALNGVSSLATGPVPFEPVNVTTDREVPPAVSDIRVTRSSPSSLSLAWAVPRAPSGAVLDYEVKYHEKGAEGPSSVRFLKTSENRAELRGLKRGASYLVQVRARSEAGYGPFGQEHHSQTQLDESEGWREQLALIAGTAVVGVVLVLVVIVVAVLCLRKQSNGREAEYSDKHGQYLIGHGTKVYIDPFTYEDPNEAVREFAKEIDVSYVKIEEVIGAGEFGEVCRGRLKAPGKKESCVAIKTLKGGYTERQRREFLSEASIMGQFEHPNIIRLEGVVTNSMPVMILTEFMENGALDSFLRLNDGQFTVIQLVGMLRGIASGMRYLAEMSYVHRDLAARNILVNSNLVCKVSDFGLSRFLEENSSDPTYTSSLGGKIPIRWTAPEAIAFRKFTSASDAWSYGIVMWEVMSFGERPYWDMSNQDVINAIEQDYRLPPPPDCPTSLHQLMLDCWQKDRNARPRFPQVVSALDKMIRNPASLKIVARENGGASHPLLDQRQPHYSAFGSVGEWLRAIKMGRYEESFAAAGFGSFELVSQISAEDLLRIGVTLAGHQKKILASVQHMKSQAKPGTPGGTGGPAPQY
As to the kind of experiment: Cellular assay EphB4 receptor autophosphorylation, transfected A375 cells, sandwich ELISA. Type of assay: cell-based. To be noted: inhibition of autophosphorylation of EphB4 kinase, Table 6. As for the experimental part: The inhibition of EphB4 receptor autophosphorylation can be confirmed with an in vitro experiment in cells such as transfected A375 human melanoma cells (ATCC Number: CRL-1619), which permanently express human EphB4 (SwissProt AccNo P54760), are seeded in complete culture medium (with 10% fetal calf serum=FCS) in 6-well cell-culture plates and incubated at 37° C. under 5% CO2 until they show about 90% confluency. The compounds to be tested are then diluted in culture medium (without FCS, with 0.1% bovine serum albumin) and added to the cells. (Controls comprise medium without test compounds). Ligand induced autophosphorylation is induced by the addition of 1 microg/ml soluble ephrinB2-Fc (s-ephrinB2-Fc: R&D Biosystems, CatNr 496-EB) and 0.1 microM ortho-vanadate. After a further 20 minutes incubation at 37° C., the cells are washed twice with ice-cold PBS (phosphate-buffered saline) and immediately lysed in 200 μl lysis buffer per well. The lysates are then centrifuged to remove the cell nuclei, and the protein concentrations of the supernatants are determined using a commercial protein assay (PIERCE). The lysates can then either be immediately used or, if necessary, stored at −20° C.
A sandwich ELISA is carried out to measure the EphB4 phosphorylation: To capture phosphorylated EphB4 protein 100 ng/well of ephrinB2-Fc (s-ephrinB2-Fc: R&D Biosystems, CatNr 496-EB) is immobilized MaxiSorb (Nunc) ELISA plates. The plates are then washed and the remaining free protein-binding sites are saturated with 3% TopBlock® (Juro, Cat. # TB232010) in phosphate buffered saline with Tween 20° (polyoxyethylen(20)sorbitane monolaurate, ICI/Uniquema) (PBST). The cell lysates (100 μg protein per well) are then incubated in these plates for 1 h at room temperature. After washing the wells three times with PBS an antiphosphotyrosine antibody coupled with alkaline phosphatase (PY 20 Alkaline Phosphate conjugated: ZYMED, Cat Nr03-7722) is added and incubated for another hour. […] The difference between the signal of the positive control (stimulated with vanadate and s-ephrinB2-Fc) and that of the negative control (not stimulated) corresponds to maximal EphB4 phosphorylation (=100%). The activity of the tested substances is calculated as percent inhibition of maximal EphB4 phosphorylation, wherein the concentration of substance that induces half the maximum inhibition is defined as the IC50 (inhibitory dose for 50% inhibition). […] The mice are treated with the test compound (e.g. 25, 50 or 100 mg/kg p.o. once daily) or vehicle starting on the day of implantation of the chamber and continuing for 4 days after. At the end of the treatment, the mice are killed, and the chambers are removed. The vascularized tissue growing around the chamber is carefully removed and weighed, and the blood content is assessed by measuring the hemoglobin content of the tissue (Drabkins method; Sigma, Deisenhofen, Germany). It has been shown previously that these growth factors induce dose-dependent increases in weight and blood content of this tissue growing (characterized histologically to contain fibroblasts and small blood vessels) around the chambers and that this response is blocked by antibodies that specifically neutralize VEGF (see Wood J M et al., Cancer Res. 60(8), 2178-2189, (2000); and Schlaeppi et al., J. Cancer Res. Clin. Oncol. 125, 336-342, (1999)). With this model, inhibition can be shown in the case of compounds of the formula (I).

T1 sequence (P10721 544-976): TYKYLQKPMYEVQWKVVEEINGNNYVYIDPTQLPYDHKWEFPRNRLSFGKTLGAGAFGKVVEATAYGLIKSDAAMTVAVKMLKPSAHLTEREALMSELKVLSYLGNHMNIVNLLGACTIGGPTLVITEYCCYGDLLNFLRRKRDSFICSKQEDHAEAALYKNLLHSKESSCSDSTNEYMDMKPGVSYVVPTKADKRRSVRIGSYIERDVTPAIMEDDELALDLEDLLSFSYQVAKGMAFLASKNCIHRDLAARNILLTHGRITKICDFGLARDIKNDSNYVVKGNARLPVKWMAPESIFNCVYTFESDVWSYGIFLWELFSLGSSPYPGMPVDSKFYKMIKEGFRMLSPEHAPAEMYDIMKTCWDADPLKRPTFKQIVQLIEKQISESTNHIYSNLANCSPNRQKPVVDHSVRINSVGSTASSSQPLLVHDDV

For orientation: IC50 means the concentration that gives 50% inhibition. Low readings indicate greater potency in that assay, high ones weaker potency in that assay. As to `CN1CCN(c2ccc(-c3cnn4c(N)c(-c5cccc(O)c5)cnc34)cc2)CC1` [Example 1, 3-{7-Amino-3-[4-(4-methyl-piperazin-1-yl)-phenyl]-pyrazolo[1,5-a]pyrimidin-6-yl}-phenol], in assay [1], the IC50 was < 10000 nM. Consider `Cc1nc2c(-c3cccc(N4CCN(C)CC4)c3)cnn2c(N)c1-c1ccc(F)cc1` [Example 80, 6-(4-Fluoro-phenyl)-5-methyl-3-[3-(4-methyl-piperazin-1-yl)-phenyl]-pyrazolo[1,5-a]pyrimidin-7-ylamine], for which, in assay [2], the IC50 is < 1000 nM. For the molecule `Cc1nc2c(-c3ccc(N4CCN(C)CC4)cc3)cnn2c(N)c1-c1ccc(F)c(Cl)c1` [Example 83, 6-(3-Chloro-4-fluoro-phenyl)-5-methyl-3-[4-(4-methyl-piperazin-1-yl)-phenyl]-pyrazolo[1,5-a]pyrimidin-7-ylamine], the IC50 in assay [2] was < 1000 nM.

On to `Cc1nc2c(-c3cccc(N4CCN(CCO)CC4)c3)cnn2c(N)c1-c1cccc(Cl)c1` [Example 90, 2-(4-{3-[7-Amino-6-(3-chloro-phenyl)-5-methyl-pyrazolo[1,5-a]pyrimidin-3-yl]-phenyl}-piperazin-1-yl)-ethanol], for which the IC50 in assay [2] is < 1000 nM. Consider `COc1ccc(-c2cnn3c(N)c(-c4cccc(Cl)c4)c(C)nc23)cc1OC` [Example 93, 6-(3-Chloro-phenyl)-3-(3,4-dimethoxy-phenyl)-5-methyl-pyrazolo[1,5-a]pyrimidin-7-ylamine], for which the IC50 in assay [2] is < 1000 nM.

Consider `Cc1nc2c(-c3cccc(N4CCN(CCO)CC4)c3)cnn2c(N)c1-c1ccc(F)c(Cl)c1` [Example 100, 2-(4-{3-[7-Amino-6-(3-chloro-4-fluoro-phenyl)-5-methyl-pyrazolo[1,5-a]pyrimidin-3-yl]-phenyl}-piperazin-1-yl)-ethanol], for which the IC50 in assay [2] is < 1000 nM.

(Values after patent US20090099167A1, “Organic compounds” (Novartis Institutes for Biomedical Research, priority 2004, published 2009).)
